Data published in ChEMBL document CHEMBL2396549, “The discovery of BMS-457, a potent and selective CCR1 antagonist” (Bioorg Med Chem Lett, 2013).
The source made the active and inactive calls. No cut-off for these calls is given here.

How the values were obtained:
hERG (KCNH2) = hERG (KCNH2) (Homo sapiens, UniProt Q12809); assay: Inhibition of human ERG at 10 uM by patch clamp assay
Homo sapiens [1] = species on record: Homo sapiens; assay: Inhibition of calcium channel (unknown origin) at 10 uM
[2] = Metabolic stability in monkey liver microsomes assessed as compound remaining; type: ADME, Macaca mulatta, Microsome; details: rhesus monkey
Homo sapiens [3] = species on record: Homo sapiens; assay: Inhibition of sodium channel (unknown origin) at 10 uM
Liver microsomes [4] = assay: Metabolic stability in rat liver microsomes assessed as compound remaining; type: ADME, Microsome
Liver = assay: Metabolic stability in mouse liver microsomes assessed as compound remaining; type: ADME, Microsome
Liver microsomes [5] = assay: Metabolic stability in human liver microsomes assessed as compound remaining; type: ADME, Microsome
[6] = target: T1, Nuclear receptor subfamily 1 group I member 2 (Homo sapiens, UniProt O75469); assay: Induction of PXR (unknown origin)
T1 sequence (O75469 whole entry): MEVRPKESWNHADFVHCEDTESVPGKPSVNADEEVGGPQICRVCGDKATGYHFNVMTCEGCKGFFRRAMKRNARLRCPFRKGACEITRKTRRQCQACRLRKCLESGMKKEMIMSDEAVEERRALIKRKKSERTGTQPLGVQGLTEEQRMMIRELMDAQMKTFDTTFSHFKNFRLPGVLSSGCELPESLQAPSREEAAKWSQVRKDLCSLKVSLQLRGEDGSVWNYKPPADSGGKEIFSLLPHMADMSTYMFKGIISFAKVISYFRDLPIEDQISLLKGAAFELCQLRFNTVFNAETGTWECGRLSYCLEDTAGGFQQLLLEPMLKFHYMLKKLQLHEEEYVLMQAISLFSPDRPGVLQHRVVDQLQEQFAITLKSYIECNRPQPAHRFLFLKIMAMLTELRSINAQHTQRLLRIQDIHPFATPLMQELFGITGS

[7] = Oral bioavailability in cynomolgus monkey at 2 mg/kg; type: ADME, organism-based, Macaca fascicularis; details: in vivo
Homo sapiens [8] = species on record: Homo sapiens; assay: (§1) Inhibition of calcium channel (unknown origin)
[9] = Oral bioavailability in mouse at 9 mg/kg; type: ADME, organism-based; details: in vivo
Homo sapiens [10] = species on record: Homo sapiens; assay: (§2) Inhibition of sodium channel (unknown origin)
[11] = target: Voltage-gated inwardly rectifying potassium channel KCNH2 (Homo sapiens, UniProt Q12809); assay: Inhibition of human ERG by patch clamp assay
Cytochrome P450 3A4 = Cytochrome P450 3A4 (Homo sapiens, UniProt P08684); assay: Inhibition of CYP3A4 (unknown origin); type: ADME
Cytochrome P450 2C9 = Cytochrome P450 2C9 (Homo sapiens, UniProt P11712); assay: Inhibition of CYP2C9 (unknown origin); type: ADME
Cytochrome P450 2D6 = Cytochrome P450 2D6 (Homo sapiens, UniProt P10635); assay: Inhibition of CYP2D6 (unknown origin); type: ADME
Cytochrome P450 2C19 = Cytochrome P450 2C19 (Homo sapiens, UniProt P33261); assay: Inhibition of CYP2C19 (unknown origin); type: ADME
Cytochrome P450 1A2 = target: T2, Cytochrome P450 1A2 (Homo sapiens, UniProt P05177); assay: Inhibition of CYP1A2 (unknown origin); type: ADME
T2 sequence (P05177 whole entry): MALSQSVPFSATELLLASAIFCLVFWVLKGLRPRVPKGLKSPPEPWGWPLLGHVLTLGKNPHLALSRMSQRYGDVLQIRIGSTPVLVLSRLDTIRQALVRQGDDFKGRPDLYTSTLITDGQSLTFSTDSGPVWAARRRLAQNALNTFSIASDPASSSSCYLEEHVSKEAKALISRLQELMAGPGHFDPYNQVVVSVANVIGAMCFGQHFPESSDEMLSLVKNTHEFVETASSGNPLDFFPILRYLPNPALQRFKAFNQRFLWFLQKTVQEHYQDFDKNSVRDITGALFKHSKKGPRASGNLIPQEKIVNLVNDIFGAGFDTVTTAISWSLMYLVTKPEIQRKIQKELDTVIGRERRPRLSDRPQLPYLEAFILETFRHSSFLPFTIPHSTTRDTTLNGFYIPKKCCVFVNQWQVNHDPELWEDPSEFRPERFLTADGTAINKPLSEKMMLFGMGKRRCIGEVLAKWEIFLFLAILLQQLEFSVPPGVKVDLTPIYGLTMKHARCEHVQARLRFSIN

[12] = target: T3, C-C chemokine receptor type 1 (Homo sapiens, UniProt P32246); assay: Antagonist activity at CCR1 in whole blood (unknown origin) assessed as inhibition of LKN1-induced upregulation of beta2-integrin CD11b
T3 sequence (P32246 whole entry): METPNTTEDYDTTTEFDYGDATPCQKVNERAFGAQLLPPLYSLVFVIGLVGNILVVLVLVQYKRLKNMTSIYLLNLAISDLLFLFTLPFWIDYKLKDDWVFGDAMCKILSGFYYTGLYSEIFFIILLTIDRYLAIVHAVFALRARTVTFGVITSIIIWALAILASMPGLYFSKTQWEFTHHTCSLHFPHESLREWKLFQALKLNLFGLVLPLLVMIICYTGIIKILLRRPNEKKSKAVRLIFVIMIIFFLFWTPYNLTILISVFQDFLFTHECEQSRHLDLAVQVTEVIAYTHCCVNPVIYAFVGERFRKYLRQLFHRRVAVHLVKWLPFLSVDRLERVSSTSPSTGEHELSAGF

[13] = target: T3, C-C chemokine receptor type 1; assay: Antagonist activity at CCR1 in whole blood (unknown origin) assessed as inhibition of MIP1alpha-induced upregulation of beta2-integrin CD11b
[14] = Fraction unbound in human serum; type: ADME, cell-free
[15] = target: T3, C-C chemokine receptor type 1; assay: Binding affinity to human CCR1
[16] = as §1; design: species or system Homo sapiens
[17] = as §2; design: species or system Homo sapiens
[18] = Antagonist activity at human CCR1 assessed as inhibition of MIP1alpha-induced chemotaxis
[19] = target: T3, C-C chemokine receptor type 1; assay: Antagonist activity at human CCR1 assessed as inhibition of MIP1alpha-induced chemotaxis

Cytochrome P450 2D6, sequence (P10635 whole entry): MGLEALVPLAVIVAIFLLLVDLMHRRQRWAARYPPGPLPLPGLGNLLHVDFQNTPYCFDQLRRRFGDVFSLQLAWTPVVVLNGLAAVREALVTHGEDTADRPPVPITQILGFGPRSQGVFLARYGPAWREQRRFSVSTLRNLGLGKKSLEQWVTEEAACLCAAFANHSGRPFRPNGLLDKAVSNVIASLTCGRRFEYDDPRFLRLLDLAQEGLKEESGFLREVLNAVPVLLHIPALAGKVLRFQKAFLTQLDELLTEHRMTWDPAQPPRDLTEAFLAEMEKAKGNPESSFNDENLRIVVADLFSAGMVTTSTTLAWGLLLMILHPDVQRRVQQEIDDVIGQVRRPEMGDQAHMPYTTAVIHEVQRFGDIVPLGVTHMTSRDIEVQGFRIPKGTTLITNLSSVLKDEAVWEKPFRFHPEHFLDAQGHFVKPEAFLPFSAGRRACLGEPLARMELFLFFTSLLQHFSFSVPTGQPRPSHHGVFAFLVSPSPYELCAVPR
Cytochrome P450 2C9, sequence (P11712 whole entry): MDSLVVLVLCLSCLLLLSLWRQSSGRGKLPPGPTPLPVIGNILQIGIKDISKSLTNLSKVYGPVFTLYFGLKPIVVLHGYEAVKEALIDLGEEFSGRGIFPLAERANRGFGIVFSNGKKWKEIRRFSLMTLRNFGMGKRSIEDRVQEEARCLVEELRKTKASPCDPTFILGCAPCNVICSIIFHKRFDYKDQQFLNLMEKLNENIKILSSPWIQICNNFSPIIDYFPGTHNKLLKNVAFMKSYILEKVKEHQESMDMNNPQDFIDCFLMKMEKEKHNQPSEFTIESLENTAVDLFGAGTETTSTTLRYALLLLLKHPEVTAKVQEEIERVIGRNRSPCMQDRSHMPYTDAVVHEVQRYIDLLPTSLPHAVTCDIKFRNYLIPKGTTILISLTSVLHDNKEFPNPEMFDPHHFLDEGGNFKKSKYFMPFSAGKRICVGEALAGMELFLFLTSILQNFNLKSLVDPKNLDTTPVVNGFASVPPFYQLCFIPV
Cytochrome P450 3A4, sequence (P08684 whole entry): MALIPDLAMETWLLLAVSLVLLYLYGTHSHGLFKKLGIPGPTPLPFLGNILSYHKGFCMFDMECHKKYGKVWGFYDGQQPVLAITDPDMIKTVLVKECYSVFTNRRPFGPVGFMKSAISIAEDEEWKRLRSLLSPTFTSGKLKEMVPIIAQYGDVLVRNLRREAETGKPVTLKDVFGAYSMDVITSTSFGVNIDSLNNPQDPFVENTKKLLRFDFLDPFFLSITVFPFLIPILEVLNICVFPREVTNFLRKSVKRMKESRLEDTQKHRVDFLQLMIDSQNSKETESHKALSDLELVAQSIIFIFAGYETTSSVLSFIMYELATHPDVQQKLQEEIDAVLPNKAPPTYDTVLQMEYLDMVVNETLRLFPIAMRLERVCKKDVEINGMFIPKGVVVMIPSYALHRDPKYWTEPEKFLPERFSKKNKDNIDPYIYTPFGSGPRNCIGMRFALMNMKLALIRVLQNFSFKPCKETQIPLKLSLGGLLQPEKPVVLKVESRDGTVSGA
Cytochrome P450 2C19, sequence (P33261 whole entry): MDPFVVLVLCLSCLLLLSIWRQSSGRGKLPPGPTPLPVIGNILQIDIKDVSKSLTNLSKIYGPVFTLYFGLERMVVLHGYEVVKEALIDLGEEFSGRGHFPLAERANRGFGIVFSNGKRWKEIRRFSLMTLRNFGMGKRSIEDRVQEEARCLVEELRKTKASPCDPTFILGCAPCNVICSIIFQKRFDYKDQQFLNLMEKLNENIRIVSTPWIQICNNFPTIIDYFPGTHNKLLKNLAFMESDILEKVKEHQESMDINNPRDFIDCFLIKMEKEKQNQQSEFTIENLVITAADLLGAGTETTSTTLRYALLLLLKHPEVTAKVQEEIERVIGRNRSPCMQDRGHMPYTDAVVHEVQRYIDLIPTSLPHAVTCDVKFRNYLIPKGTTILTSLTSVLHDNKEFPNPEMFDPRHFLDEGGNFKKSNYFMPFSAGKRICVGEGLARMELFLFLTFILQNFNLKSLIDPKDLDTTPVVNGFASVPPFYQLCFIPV
Voltage-gated inwardly rectifying potassium channel KCNH2, sequence (Q12809 whole entry): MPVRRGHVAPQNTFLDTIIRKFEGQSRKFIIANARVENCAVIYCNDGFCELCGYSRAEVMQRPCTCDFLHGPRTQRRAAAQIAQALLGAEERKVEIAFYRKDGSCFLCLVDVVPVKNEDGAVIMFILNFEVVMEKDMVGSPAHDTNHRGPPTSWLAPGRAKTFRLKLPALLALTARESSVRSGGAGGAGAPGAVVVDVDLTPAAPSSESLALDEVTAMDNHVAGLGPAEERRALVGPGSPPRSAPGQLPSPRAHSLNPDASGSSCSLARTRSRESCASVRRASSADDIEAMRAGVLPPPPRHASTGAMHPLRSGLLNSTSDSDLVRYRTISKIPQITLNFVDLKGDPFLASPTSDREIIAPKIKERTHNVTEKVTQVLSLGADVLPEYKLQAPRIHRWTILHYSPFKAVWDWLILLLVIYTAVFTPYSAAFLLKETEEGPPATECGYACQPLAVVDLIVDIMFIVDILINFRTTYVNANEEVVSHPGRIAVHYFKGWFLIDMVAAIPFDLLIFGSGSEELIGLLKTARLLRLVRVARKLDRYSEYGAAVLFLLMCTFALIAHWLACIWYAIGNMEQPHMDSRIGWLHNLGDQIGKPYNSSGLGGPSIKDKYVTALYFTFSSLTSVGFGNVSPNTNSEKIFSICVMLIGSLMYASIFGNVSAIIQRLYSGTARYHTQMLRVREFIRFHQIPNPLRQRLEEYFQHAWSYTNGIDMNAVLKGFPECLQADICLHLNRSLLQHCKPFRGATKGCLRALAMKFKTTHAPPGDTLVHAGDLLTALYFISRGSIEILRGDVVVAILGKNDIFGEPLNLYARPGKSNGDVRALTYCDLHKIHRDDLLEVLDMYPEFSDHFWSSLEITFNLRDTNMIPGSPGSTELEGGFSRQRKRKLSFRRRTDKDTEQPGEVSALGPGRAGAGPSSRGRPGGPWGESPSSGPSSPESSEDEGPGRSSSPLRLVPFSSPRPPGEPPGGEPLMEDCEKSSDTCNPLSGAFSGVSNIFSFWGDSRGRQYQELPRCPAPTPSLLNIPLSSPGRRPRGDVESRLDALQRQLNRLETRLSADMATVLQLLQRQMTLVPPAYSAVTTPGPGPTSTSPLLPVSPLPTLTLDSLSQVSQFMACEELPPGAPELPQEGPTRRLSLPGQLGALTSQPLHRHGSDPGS
hERG (KCNH2), sequence (Q12809 whole entry): as above

Structure (SMILES) | Stability [2] [%] | Stability (Liver microsomes [4]) [%] | Stability (Liver) [%] | Stability (Liver microsomes [5]) [%] | IC50 [15] [nM] | EC50 [6] [nM] | IC50 [16] [nM] | IC50 [17] [nM] | also measured
CC(C)[C@@H](NC(=O)[C@@H]1CC[C@@H](O)C1)C(=O)N1CC[C@](O)(c2ccc(Cl)cc2)C(C)(C)C1 (mixture of isomers) | 66 | 87 | 88 | 98 | 0.8 | – | – | – | inhibition at 10 µM (hERG (KCNH2)): 3%; inhibition (Homo sapiens [1]): 11%; inhibition (Homo sapiens [3]): 14%; EC20 ([6]; human): 41000 nM; EC60 ([6]; human): > 50000 nM; bioavailability [7]: 54%; inhibition (Homo sapiens [8]): inactive; bioavailability [9]: 100%; inhibition (Homo sapiens [10]): inactive; INH [11]: > 80 µM; inhibition (INH) (Cytochrome P450 3A4): Not Active; inhibition (INH) (Cytochrome P450 2C9): Not Active; inhibition (INH) (Cytochrome P450 2D6): Not Active; inhibition (INH) (Cytochrome P450 2C19): Not Active; inhibition (INH) (Cytochrome P450 1A2): Not Active; IC50 [12]: 54 nM; IC50 [13]: 46 nM; fraction unbound [14]: 0.16
CC(C)[C@@H](NC(=O)[C@@H]1CCC[C@@H]1O)C(=O)N1CC[C@](O)(c2ccc(Cl)cc2)C(C)(C)C1 (relative stereo) | 1 | 20 | 49 | 33 | 2.3 | 1400 | 61000 | > 80000 | –
CC(C)[C@@H](NC(=O)c1ccccc1)C(=O)N1CCC(c2ccc(Cl)cc2)CC1 | – | – | – | – | 30 | – | – | – | IC50 [18]: 78 nM
CC(C)[C@H](CN1CC[C@](O)(c2ccc(Cl)cc2)C(C)(C)C1)NC(=O)c1ccccc1 | – | – | – | – | 2240 | – | – | – | IC50 [19]: Not Active
CC(C)[C@@H](NC(=O)[C@@H]1CCC[C@@H]1N)C(=O)N1CC[C@](O)(c2ccc(Cl)cc2)C(C)(C)C1 | 93 | 93 | 92 | 94 | 2.2 | 8500 | 21000 | 39000 | –
